row,SMILES,melting point
1,O=Cc1ccc2c(n1)COC(c1ccccc1)O2 (centres undefined),110 to 114 °C
2,CC(=O)Oc1cc(C)cc(C(=O)N[C@@H](Cc2ccccc2)[C@H](OC(C)=O)C(=O)O)c1C,185 to 186 °C
3,CCOC(Cc1ccc(OCCN2c3ccccc3Oc3ccccc32)cc1)C(=O)O (centres undefined),86 to 102 °C
4,c1ccc(CSc2ncccc2-c2ccccc2)cc1,99 to 100 °C
5,Cc1cc(O)c(F)cc1[N+](=O)[O-],110 to 112 °C
6,O=C1CCC2(CC1)CC(=O)c1ccccc1C2,158 to 160 °C
7,CC1CCC(C(C)C)C(c2ccc3c(c2)C(c2ccccc2)(C(F)(F)F)c2cc(C4CC(C)CCC4C(C)C)ccc2O3)C1 (centres undefined),150 to 151 °C
8,OCCNc1ccc(C2CCCCC2)cc1,39 to 41 °C
9,CN(C1CCN(CCCC(F)(F)F)CC1)S(=O)(=O)c1ccc(Nc2nccc(Nc3ccc(F)cc3)n2)cc1,166 to 167 °C
10,C=CC(=O)NCCCCCCCCCCCCCCCCCC,75 to 77 °C
11,O=C(NC(=O)c1c(Cl)cccc1Cl)Nc1cc(-c2ccc(C(F)(F)F)cc2)on1,227 to 230 °C
12,CCOC(=O)Cc1ccc(NC(=O)C(CO)NS(=O)(=O)c2ccc(F)cc2)cc1 (racemic),148 to 150 °C
13,CN1CCN(Cc2cc(-c3ccc4c(c3)CCO4)nn(CC=Cc3ccc(Cl)cc3)c2=O)CC1,112 to 113 °C
14,C#CCN1C(=O)N(c2ccc(C#N)c(C(F)(F)F)c2)C(=O)C1(CF)CF,126 to 127 °C
15,O=C(CN1CCC(Cc2ccccc2)CC1)Nc1ccc2[nH]c(=S)oc2c1,183 to 184 °C
16,COc1ccc(CC(C)NCC(O)c2cccc(Cl)c2)cc1 (centres undefined),80 to 87 °C
17,C=CCOc1ccccc1C=C(C=O)C(C=O)=Cc1ccccc1OCC=C,117 to 118 °C
18,C=C(CCCCCCCCCCCCCCCC)CC(CO)COCCCCCCCCCCCCCCCC (centres undefined),37 to 38 °C
19,Cc1cc(C=CC#N)cc(C(=O)c2[nH]c(=O)[nH]c(=O)c2C(C)C)c1,233 to 235 °C
20,CCCCCCCCCCCCCCCCCCNC(=O)OCC(CNS(=O)(=O)CCCI)OC(=O)NC (centres undefined),97 to 99 °C
21,CCCC[C@]1(CC)CS(=O)(=O)c2cc(OC)c(OC)cc2[C@@H](c2ccccc2)N1O,174 to 175 °C
22,O=C1CCC2=C(CCc3c(F)cccc32)N1,233 to 234 °C
23,COC12CC(C3(c4cncc(Br)c4)N=NCS3)CN(C)C1Cc1cn(C)c3cccc2c13 (centres undefined),131 to 137 °C
24,CCCCN(C)C(=O)CCCCCCCCCCSC1Cc2cc(O)ccc2C2CCC3(C)C(O)CCC3C12 (centres undefined),71 to 75 °C
25,Cc1ccc(-c2cccc(/C=C/C(=O)Nc3ccc(CN4CCCCC4)cc3)c2)cc1,154 to 156 °C
26,O=C1COC2(CCN(CC(=O)c3ccc(F)cc3)CC2)CN1,206 to 210 °C
27,CC1(C)[C@@H](C=C(Cl)c2ccc(Cl)cc2)[C@@H]1C(=O)O (relative stereo),103 to 106 °C

row,SMILES,melting point
1,O=C(O)C1=Cc2cc(Cl)cc(COCc3ccccc3)c2OC1C(F)(F)F (centres undefined),134 to 135 °C
2,CN(C)C1CC2c3ccccc3Cc3ccccc3N2C1 (centres undefined),124 to 128 °C
3,N#CC(C#N)(CC=C(Cl)Cl)Cc1ccc(OC(F)(F)F)cc1,96.5 °C
4,CC(C)[C@H](NC(=O)N1CCOCC1)C(=O)N[C@@H](Cc1ccccc1)C[C@H](O)[C@H](Cc1ccccc1)NC(=O)[C@@H](NC(=O)N1CCOCC1)C(C)C,198 to 201 °C
5,CC(=O)OC1C(C)OC(Sc2ccccc2)C(OCc2ccccc2)C1OC(C)=O (centres undefined),124 °C
6,C[C@H]1CCCC(C)(C)[C@@H]1[C@H](O)c1ccc(Cl)c(Cl)c1,94.2 to 96.2 °C
7,COc1ccccc1-c1ccc(C(=O)N2Cc3cccn3Cc3ccccc32)cc1C,133 to 135 °C
8,CC12CCC3C(CCC4CC(=O)CCC43C)C1CC=C2c1cccnc1 (centres undefined),190 to 192 °C
9,O=C(O)c1ccc(NCCOc2ccccc2)cc1,172 to 175 °C
10,CN(C=O)c1cc(F)ccc1C(=O)COC(=O)c1ccccc1,93 to 95 °C
11,CC(C)COCCOc1ccc(OCC(O)CNCCNC(=O)N(C)C)cc1 (centres undefined),75 °C
12,Cc1ccc(C2=NC(O)(C(F)(F)F)CN2c2ccc(S(C)(=O)=O)cc2)cc1Cl (centres undefined),201 °C
13,CC(C)(C1CC1)C(O)(Cn1cncn1)c1ccc(Cl)cc1 (centres undefined),88 to 90 °C
14,COc1cccc2c1CCN([C@@H]1CN3CCC1CC3)C2=O,> 290 °C
15,CC(=O)Nc1csc(Br)n1,165 °C
16,CNc1c(-c2cc(Cl)ccc2O)c2cc(C(F)(F)F)ccc2[nH]c1=O,238 to 240 °C
17,COc1ccc(-n2c3ccccc3c3cc(C(C#N)=C(C#N)c4cc(C(F)(F)F)cc(C(F)(F)F)c4)ccc32)cc1,170 to 172 °C
18,CCOC(=O)C(C)NC(=O)N1CCc2cc(S(=O)(=O)N3CCN(c4cccc(Cl)c4)CC3)ccc21 (centres undefined),167 to 168 °C
19,COC(=O)c1cc(Cl)c(NC(C)=O)c2c1OCCC2,184 °C
20,COC(=O)c1ccsc1N=C=S,63 to 65 °C
21,CCOC(=O)CC(=O)NC(=O)N1CC1C#N (centres undefined),121 to 123 °C
22,O=C(CCl)c1ccc2c(c1)[C@H](NC(=O)C(F)(F)F)CC2,166 to 167 °C
23,O=C1C=CC2=C(C1)Cc1ccccc1OCO2,93 to 95 °C
24,CC(=O)C1=CCC2C3CCC4=CC(=O)CCC4(C)C3(F)C(=O)CC12C (centres undefined),208 to 211 °C
25,CC(C)(C)c1nn(-c2c(Cl)cc(C(F)(F)F)cc2Cl)c(N)c1Cl,137 °C
26,CC(C)n1nc(C#C[Si](C)(C)C)ccc1=O,61 to 62.5 °C
27,COC(=O)OC1=C(c2cc(C)ccc2C)C(=O)NC12CCN(OC)CC2,186 to 188 °C

# Further lines, results first:
row,melting point,SMILES
1,70 to 72 °C,COc1ccc(C(=O)Cc2c(Cl)cncc2Cl)c2c1CC1(CCCC1)O2
2,133 to 134 °C,CCc1c2c(c(C)c(C)c1N1CCN(c3ccc(OC)cc3)CC1)OC(C)(C)C2=O
3,46 to 47.5 °C,CCCCCCCCCOc1ccc(-c2ccc(Br)cc2)c(F)c1F
4,112 to 115 °C,Cc1ccc(Cc2cnc(NCCNc3ncc(Cl)cc3C)[nH]c2=O)cn1
5,168 to 171 °C,CCOC(=O)Cc1ccc(NC(=O)C(COc2cccnc2)NS(=O)(=O)c2ccc(Br)cc2)cc1 (racemic)
6,147 to 149 °C,COC(=O)c1nc(Nc2cccc(C(F)(F)F)c2)sc1-c1ccccc1
7,122 to 123 °C,COc1cc2ncnc(N3CCN(C(=O)Nc4ccc(CN5CCCCC5)cc4)CC3)c2cc1OC
8,151 to 153 °C,Nc1nc(NCCc2ccccc2OCc2ccccc2)nc2nc(-c3ccco3)nn12
9,125 to 126 °C,Cc1oc(-c2ccc(C(F)(F)F)cc2)nc1COc1cccc(CN(O)C(N)=O)c1
10,200 to 202 °C,CCOCc1nc2c(N)nc(C)c(C)c2n1CCCCS(N)(=O)=O
11,167 to 168 °C,CCOC(=O)c1cc2cc(NC(C)C)ccc2nn1
12,62 to 64 °C,COc1ccc(/C=C/c2cc(Cl)cc(Cl)c2)cc1
13,205 to 207 °C,CC1OC2(CCN(c3nc(=O)c4cc(C(F)(F)F)cc([N+](=O)[O-])c4s3)CC2)OC1C (centres undefined)
14,97 to 98 °C,COC(=O)CCc1cc(C(=O)c2cccc(C(=O)OC)n2)ccc1OC
15,264 to 266 °C,CCOC(=O)c1ncc2[nH]c3ccc(I)cc3c2n1
16,95 °C,COc1ccc(-c2nc(-c3ccc4c(c3)OCO4)c(-c3ccc4c(c3)OCO4)[nH]2)c(OC)c1
17,172 to 174 °C,COc1cccc(-c2n[nH]c3c2Cc2ccccc2-3)c1
18,139 to 141 °C,CNC(=S)C1=C(O)C(C)(COC)Oc2ccc([N+](=O)[O-])cc21 (centres undefined)
19,184 to 185 °C,CCN(c1nc(-c2c(F)cccc2OC)c2[nH]ncc2n1)c1ccc(C(F)(F)F)cc1Cl
20,204 to 205 °C,CCC(C(C)=CC(CNC(=O)c1cnc2nc(C)ccc2c1O)=NO)[N+](=O)[O-] (centres undefined)
21,57 to 58 °C,CCc1ccc(-c2nc(COc3ccc(CCCn4ccnc4)cc3)co2)s1
22,181 to 182 °C,CC(=O)OCCc1c(-c2ccccc2)nc(N)n2ncnc12
23,165 to 166 °C,COC(=O)CCc1ccc(S(=O)(=O)c2ccc(NC(=O)c3ccc(Cl)c(Cl)c3)cn2)cc1

row,melting point,SMILES
1,78 to 80 °C,CCOC(=O)CCCN1C(=O)c2ccc(N/C(=C3\C(=O)Nc4ccccc43)c3ccccc3)cc2C1=O
2,110 to 114 °C,Cc1ccc(Br)c(S(C)(=O)=O)c1
3,56 °C,Cc1cc(OC=CCC(F)(F)F)nc(Oc2cc(C(F)(F)F)nn2C)c1
4,192 to 194 °C,COc1c(C2CCN(CCCCNC(=O)c3ccc(-c4ccc(Cl)nn4)cc3)CC2)ccc2c1CCCC2
5,220 °C,O=C(Nc1ccc2ccc(Cl)nc2n1)c1ccncc1
6,> 300 °C,O=c1nc(-c2ccccc2)c2cc([N+](=O)[O-])ccc2[nH]1
7,> 390 °C,O=c1[nH][nH]c(=O)c2c(O)c3cccc(Cl)c3nc12
8,80 to 82 °C,CCOC(=O)n1nc(-c2cccc(OC)c2)nc1-c1ccccc1CC
9,176 to 177 °C,CSc1cccc(COCCCn2ccnc2)c1NC(=O)CC1c2ccccc2Oc2ccccc21
10,92 to 98 °C,Cc1cc(O)c(O)cc1Br
11,172 to 175 °C,COCCc1nc2c(N)nc3cc(Br)ccc3c2s1
12,114 to 117 °C,CCn1cc(C2(c3ccc(F)c(-c4cccnc4F)c3)N=C(N)N(C)C2=O)cc1C(=O)OC (centres undefined)
13,228 to 230 °C,COC(=O)c1ccc2c(c1)c(Cc1ccc(C(=O)O)cc1OC)cn2C
14,152 to 155 °C,COc1ccc(C(=O)OC(=O)NC(CO)Cc2ccc(O)cc2)cc1OC (centres undefined)
15,42 to 44 °C,CCc1cc(Cl)c(C)c(Oc2c(C)cc(C)cc2C)n1
16,190 to 194 °C,COc1ccc(C(=O)Nc2ccc(C)cc2)cc1N
17,210 to 211 °C,Cc1nc(Cc2ccc(NC(=O)/C=C/c3cnn(C)c3-c3ccc(F)cc3)cc2)sc1C
18,90 to 91 °C,CC(C)(C)OC(=O)Nc1ccc2ccccc2c1Br
19,151 to 153 °C,Cc1nc2cccc(C3CC3CN3C(=O)c4ccccc4C3=O)c2s1 (centres undefined)
20,128 °C,COc1ccc(-c2nc(CC(=O)Cc3ccc(OC(C)=O)c(OC(C)=O)c3)cs2)cc1OC
21,234 to 236 °C,COc1cc2c(cc1Cl)CC(=O)NN=C2c1ccc(N)cc1
22,122 to 124 °C,COc1cnc(CO)cc1OC

# Reference: a melting point compilation (Tetko et al.; mined from patent text by program, amines drawn as free bases though some values may be those of a salt)
